Results: patent US20020120242A1, “Absorbent articles with hydrophilic compositions containing botanicals” (priority 2000, published 2002)
“And” between values parts separate entries of the source, which are not always exact repeats. Equal values may be shown once. Read-outs that look alike come from different tables or passages of the source. Marks after values point to notes of the source that are not given here.

Legend:
interleukin-1 alpha [1] = experiment: EPIDERM skin culture irritation test, fecal protease (trypsin-chymotrypsin) insult, IL-1 alpha release; format: cell-based, human
Protocol: In order to evaluate the efficacy of the compositions of the invention, a human skin culture was selected to model the response of the human epidermis. EPIDERM skin culture is a cornified, air-interfaced human skin culture. EPIDERM skin culture has multiple layers of progressively differentiated keratinocytes resembling human epidermis. EPIDERM EPI-200 skin culture can be purchased from MatTek Corporation of Ashland, Mass. Experiments using EPIDERM skin culture are conducted in six well plates. Typically, five EPIDERM skin culture inserts are added to five of the six wells. Each well contains one milliliter of pre-warmed media that is the same as the EPIDERM skin culture media. The plates are then incubated in a 37° C., 5% CO2 incubator for thirty minutes. After incubation, 15 microliters of test composition or control are applied to the surface of the EPIDERM skin culture after removing any residual media. The well plates, with the test compositions/control applied, are incubated in the 37° C., 5% CO2 incubator for thirty minutes after which the underlying media is removed and replaced with fresh, pre-warmed media. Next, ten microliters of insult solution, either fecal protease or bile acid, are applied to the surface of the EPIDERM skin culture.
The insult solution is prepared by diluting a 10 mg/ml stock solution in phosphate-buffered saline to a working concentration of 250 µg/ml. The base of the stock solution is 50 mM NaOAcetate, pH 5.5 and 0.15 M NaCl stored at −80° C. […] The bile acid insult solution can be prepared by dissolving 65 mg of cholic acid, 62 mg of deoxycholic acid and 31 mg of chenodeoxycholic acid in 10 ml of phosphate-buffered saline. The bile acid insult components can be purchased from Sigma Chemical Co. of St. Louis, Mo. Phosphate-buffered saline, pH 7.4 (hereinafter “PBS”) can be purchased from Life Technologies of Rockville, Md.
For internal studies, infant feces were collected and the amount of total protease and trypsin activities determined for each of the fecal extracts. To prepare the extract, the feces were suspended in water and vigorously vortexed. After vortexing, the samples were held on ice prior to centrifugation at 15,000 times the force of gravity for 20 minutes. The supernatant was filtered through 0.22 micron cellulose acetate filters and stored at −80° C. until use.
After application of the insult solution, the well plates are incubated for six hours in the 37° C., 5% CO2 incubator. At the end of six hours, the well plates are removed from the incubator, the underlying media is removed and stored at −80° C. The response of the EPIDERM skin culture to the test compositions/control and the insult solution is determined by measuring the amount of interleukin-1 alpha (hereinafter “IL-1”). Interleukin-1 alpha can be quantified using an Interleukin-1 alpha Quantikine Kit available from R&D Systems of Minneapolis, Minn. Interleukin-1 alpha measurements are converted to Log10 for each of the treatments and the averages for each treatment are calculated. In order to determine the ability of the test compositions to reduce skin irritation caused by the biological insults, the percent mean reduction of IL-1 is calculated as follows: [formula]
EPIDERM skin culture studies were conducted to measure the reduction in IL-1 response between compositions of the invention and a fecal protease-induced irritation. The studies were conducted using botanicals that are representative of the invention.

EPIDERM skin culture [2] = experiment: MTT viability assay on EPIDERM skin culture after test composition + insult
Excerpt: (§1) The MTT dye is taken up by the cells. The reduction of the dye as a result of cellular metabolism can be used to measure the cytotoxicity of the test compositions. In order to confirm viability, inserts of the EPIDERM skin culture that have already been subjected to the test compositions and biological insults are removed from their media and are washed consecutively through immersion in three different beakers of PBS. Fresh PBS is used for each test composition or control being evaluated. The PBS is discarded onto paper towel. The EPIDERM skin culture inserts are then patted onto paper towel and placed into the wells of a 24 well plate containing 300 microliters of pre-warmed media. After all of the EPIDERM skin culture inserts are washed, they are transferred to new 24 well plates containing 300 microliters of the MTT reagent. The MTT reagent is thiazolyl blue having the formula 3-[4,5-Dimethylthiazol-2-yl]-2,5-diphenyltetrzoliumbromide. The plates are incubated for 2 hours in a 37° C., 5% CO2 incubator. After incubation, the EPIDERM skin culture inserts are transferred to 24 well plates and are immersed in 2 milliliters of MTT extraction buffer. The extraction buffer extracts the MTT reagent from the cells. The 24 well plates are parafilmed, covered and placed in ZIPLOCK bags to reduce evaporation of the extraction buffer. The covered plates are rocked overnight in the dark. Following overnight rocking, the liquid in the EPIDERM skin culture inserts is decanted back into the wells. The contents of each well are mixed and a 200 microliter aliquot is then removed from each well and transferred to a 96 well plate. The optical density (OD) of the samples is measured at 570 nm using a spectrophotometer. Five hundred seventy nanometers is the optimal wavelength at which to measure the reduced form of MTT reagent. This reading is subtracted from a background reading at 650 nm to improve data quality. Percent viability of each test composition+insult relative to the control+PBS is recorded as the Mean ODtest composition+insult divided by the Mean ODcontrol+PBS; the quotient then multiplied by 100.

interleukin-1 alpha [3] = experiment: EPIDERM skin culture irritation test, protease and bile acid insult, IL-1 alpha release; format: cell-based, human; details: 4 mg/ml in water, 30 minutes pretreatment; protease and bile acid insult 6 hours; sample size six
Protocol: An additional set of EPIDERM skin culture experiments was conducted to predict the effect of extracted botanical actives on the irritation response to a protease and bile acid insult. The method for utilizing the EPIDERM skin culture described above was also used for this set of experiments evaluating response to a protease and bile acid insult. The EPIDERM skin culture was pretreated with 15 l of test composition containing 4 mg/ml of epigallocatecin gallate in water for a period of 30 minutes in a 37° C./5% CO2 incubator. The skin culture wells were then treated with 10 µl of a protease and bile acid insult for 6 hours under the same incubation conditions. Phosphate-buffered saline solution of pH 7.4 was used as a negative control. After 6 hours, the underlying media is removed and stored at -80° C. The amount of IL-1 from the media was quantified using an Interleukin-1 alpha Quantikine Kit available from R&D Systems of Minneapolis, Minn. The protease and bile acid insult was prepared by mixing equal volumes of a bile acid insult with a protease insult. The bile acid insult included 13 mg/ml cholic acid (sodium salt), 12.4 mg/ml deoxycholic acid (sodium salt) and 6.2 mg/ml chenodeoxycholic acid (sodium salt) prepared in pH 7.4 phosphate-buffered saline. […]

[4] = target: T1, porcine pancreatic trypsin (Sus scrofa, UniProt P00761); experiment: Trypsin inhibition in solution with BAPNA chromogenic substrate; format: biochemical; details: for Trypsin Inhibition (IC50): solid form dissolved in PBS
T1 construct: purchased Sigma Chemical of St. Louis, Mo; host or cells: pancreas (porcine)
Protocol: More specifically, compositions of the invention were evaluated for their inhibitory effect on porcine pancreatic trypsin in solution. Porcine pancreatic trypsin from Sigma Chemical of St. Louis, Mo. was prepared at a concentration of 1600 ng/ml in 100 mM Tris-HCL pH 8.0-buffer. Twenty-five microliters of the porcine pancreatic trypsin was added to the wells of a NUNC IMMUNO clear 96 well plate. The wells also contained 150 µl of 100 mM Tris-HCL pH 8.0 buffer and 25 µl of a test composition diluted as necessary in PBS. After a fifteen minute incubation at room temperature, the reaction is initiated by adding 50 µl of a 5 mM solution of chromogenic trypsin substrate (N-benzyl-arginine-p-nitroanalide (BAPNA)) to each of the wells. The BAPNA is prepared at 50 mM in neat dimethylsulfoxide and diluted in water to a 5mM working stock solution. In order to measure the progress of the reactions, optical density measurements were taken at 405 nm every 20 seconds (after a two minute delay) for 10 minutes with a THERMOMAX Microplate Reader (Molecular Devices, Sunnyvale, Calif.). […] Below. The IC50 value is based on a dilution of the liquid stock botanical. The actual concentration of the botanical/salt compositions is not known except for those compositions available in solid form. For the solid forms, stock concentrations in PBS can be accurately made up.

EPIDERM skin culture [5] = details: human, 4 mg/ml
Excerpt: as §1

[6] = 4 mg/ml in PBS, trypsin-chymotrypsin insult (Table 3)

T1 sequence (P00761 9-231): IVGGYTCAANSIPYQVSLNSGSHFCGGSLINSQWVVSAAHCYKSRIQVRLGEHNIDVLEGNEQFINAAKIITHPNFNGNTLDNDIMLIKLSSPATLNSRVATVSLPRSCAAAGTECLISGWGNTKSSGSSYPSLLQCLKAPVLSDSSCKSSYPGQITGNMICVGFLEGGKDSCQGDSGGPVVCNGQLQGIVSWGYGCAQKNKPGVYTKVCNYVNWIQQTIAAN

Compound	Mean Reduction of Interleukin-1 Alpha (percentage) (interleukin-1 alpha [1]; [6])	Viability (percentage) (EPIDERM skin culture [2]; [6])	Trypsin Inhibition (IC50) [4]	also measured
O=C(O[C@@H]1Cc2c(O)cc(O)cc2O[C@@H]1c1ccc(O)c(O)c1)c1cc(O)c(O)c(O)c1 [Epicatechin gallate]	62% (5)*	143%	–	–
Oc1cc(O)c2c(c1)O[C@H](c1ccc(O)c(O)c1)[C@H](O)C2 [Epicatechin]	24% (5)	111%	–	–
O=C(O[C@@H]1Cc2c(O)cc(O)cc2O[C@@H]1c1cc(O)c(O)c(O)c1)c1cc(O)c(O)c(O)c1 [Epigallocatechin gallate]	–	126%	0.00002% (w/v)	IL-1 reduction (interleukin-1 alpha [3]): 28%; Mean Reduction of Interleukin-1 Alpha (percentage) (interleukin-1 alpha [1]; 0.4% (w/v) in PBS, fecal protease insult 6 hours, one value per set of experiments): 77% and 71% and 50%; reduction of trypsin activity in solution (in words) ([4]; conclusion from Table 5): effective at reducing trypsin activity in solution; Viability (percentage) (EPIDERM skin culture [2]; 0.4% (w/v) in PBS + protease insult, relative to control + PBS): 103% and 101% and 112%
Oc1cc(O)c2c(c1)O[C@H](c1cc(O)c(O)c(O)c1)[C@H](O)C2 [Epigallocatechin]	30% (5)	–	–	Viability (percentage) (EPIDERM skin culture [5]): 125%
[Cl-].[Cl-].[Sr+2] [Strontium Chloride]	–	–	>0.5% (w/v)	Mean Reduction of Interleukin-1 Alpha (percentage) (interleukin-1 alpha [1]; 1% in PBS, fecal protease insult 6 hours, one value per set of experiments): 0% (10); Mean Reduction of Interleukin-1 Alpha (percentage) (interleukin-1 alpha [1]; 10% in PBS, fecal protease insult 6 hours, one value per set of experiments): 15% (10)
